This is an account of results in PubChem BioAssay (NCI).

Experiment in all cases: inhibition of tumour cell growth, NCI panel, 48 h
Assay [1] has as its system UO-31 renal.
The test system of assay [2] is SF-295 CNS.
Assay [3] relates to NCI-H522 lung.
The test system of assay [4] is HCC-2998 colon.
Assay [5] relates to UACC-257 melanoma.
Assay [6] concerns LOX IMVI melanoma.
In assay [7] the test system is ACHN renal.
Assay [8] deals with MALME-3M melanoma.
In assay [9] the test system is T-47D breast.
In assay [10] the test system is SNB-19 CNS.
The test system of assay [11] is KM12 colon.
In assay [12] the test system is HS 578T breast.
The test system of assay [13] is A498 renal.
In assay [14] the test system is MCF7 breast.
Assay [15] concerns SF-539 CNS.
Assay [16] relates to OVCAR-8 ovarian.
The test system of assay [17] is SR leukemia.
Assay [18] deals with CCRF-CEM leukemia.
Assay [19] deals with SK-OV-3 ovarian.

SMILES strings stand for the structures.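 Dose response: 5 concentrations. Exposure: 48 h. Format: 96-well plates. Endpoint: linear interpolation; highest concentration if not reached. TGI is the concentration that stops growth completely.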 Where a SMILES comes first, the peptide text is derived from it. [ ]: non-standard residue; d: D form. Hiv = CC(C)[C@H](O)C(=O)O Some results are limits rather than exact numbers.

Regarding `Cc1cc2c(cc1C)C(=O)/C(=C/c1ccccc1C(=O)O)C2`, the TGI in assay [1] is > 100 µM; in assay [2], > 100 µM; in [3] it was > 100 µM; in assay [4], > 100 µM; in [5], > 100 µM; in [6], 83.5 µM. Moreover, the TGI in assay [7], in [8], in [9], in [10], in assay [11] and in assay [12] was > 100 µM each time. Also, the TGI in [13] was 88.6 µM; in assay [14], > 100 µM; in assay [15] it was 39.6 µM; in [16], > 100 µM; in assay [17], 62.7 µM; in assay [18], > 100 µM.

Regarding `Cc1cccc(/C=N/NC(=S)N(C)CCc2ccccn2)n1`, the TGI in [1] is 2.36 µM; in assay [2], > 100 µM; in [3], > 100 µM; in [4], > 100 µM; in [5], 45.6 µM; in assay [6], > 100 µM. Also, the TGI was 1.15 µM in assay [7]; > 54 µM in assay [8]; > 100 µM in assay [9]; > 100 µM in assay [10]; > 100 µM in assay [11]; > 100 µM in assay [12]. For the same compound, the TGI is 1.03 µM in assay [13]; > 100 µM in [19]; > 100 µM in assay [14]; 6.8 µM in [15]; > 59 µM in [16]; > 100 µM in assay [17]. In [18], this compound had a TGI of 0.0974 µM.

With `CCOC(=O)CC(=O)CSc1c(-c2ccccc2)c(=O)n(-c2ccccc2)c(=S)n1-c1ccccc1`, the TGI in [1], in [2], in [3], in [4], in assay [5] and in assay [6] was > 100 µM each time. Moreover, the TGI in [7], in [8], in assay [9], in assay [10], in [11] and in assay [12] was > 100 µM each time. For the same compound, the TGI in [13], in assay [19], in [14], in assay [15], in [16] and in assay [17] was > 100 µM in each case. Further, in [18], the TGI is > 100 µM.

`Cc1ccc([N+](=O)[O-])cc1S(=O)(=O)Nc1ccc(C2=NOC(c3ccccc3O)C2)cc1` (stereo unspecified): the TGI was 1.34 µM in [1]; > 100 µM in assay [2]; 6.4 µM in [3]; 24.8 µM in assay [4]; > 100 µM in [5]; > 100 µM in [6]. The TGI in assay [7] was > 100 µM; in [8] it was > 100 µM; in assay [9], > 100 µM; in assay [10], 17.7 µM; in assay [11], 38.2 µM; in assay [12] it was > 100 µM. Moreover, the TGI is 32.6 µM in assay [13]; > 100 µM in assay [19]; 14 µM in assay [14]; > 100 µM in assay [15]; > 100 µM in [16]; 13.4 µM in assay [17]. Also, the TGI in assay [18] was > 100 µM.

For the compound `Nc1nnc2oc3ccc4ccccc4c3cc1-2`, the TGI was > 100 µM in assay [1]; > 100 µM in assay [2]; > 100 µM in assay [3]; 77.4 µM in assay [4]; > 100 µM in assay [5]; > 100 µM in assay [6]. In addition, the TGI in assay [7] was 80.1 µM; in [8], 89.8 µM; in [9], 65.4 µM; in assay [10] it was > 100 µM; in [11], > 100 µM; in [12], > 100 µM. Moreover, the TGI in assay [13] was 71.8 µM; in assay [19] it was > 100 µM; in [14], > 100 µM; in [16], > 100 µM; in assay [17], 72.7 µM; in [18], > 100 µM.

Consider `O=C(NCCCNCCCCNCCCNC(=O)c1cc(-c2ccccc2)nc2ccccc12)c1cc(-c2ccccc2)nc2ccccc12`, for which the TGI in assay [1] turned out to be 40 µM; in assay [2], 14.4 µM; in assay [3] it was 5.64 µM; in [4], 4.61 µM; in assay [5] it was 13.3 µM; in assay [6] it was 3.12 µM. Further, the TGI in [7] amounted to 42.3 µM; in assay [8], 4.01 µM; in assay [9], 12.1 µM; in [12] it was 4.32 µM; in assay [13] it was 47.5 µM; in assay [19] it was 4.85 µM. The TGI in assay [14] was found to be 3.78 µM; in [15], 3.62 µM; in [17], 4.95 µM; in assay [18], 3.63 µM.

As for `CC(C)[C@@H]1OC(=O)[C@@H](C)NC(=O)[C@@H]2CCCN2C1=O` (cyclo([Hiv]-Pro-[dA])), the TGI in [2], in [4], in assay [5], in assay [6], in [7] and in [8] was > 100 µM in each case. Also, the TGI in assay [9], in assay [10], in assay [11], in assay [12], in [13] and in [19] was > 100 µM in each case. Moreover, the TGI in assay [14], in assay [15], in [16], in assay [17] and in [18] was > 100 µM throughout.
